Read-outs that look alike come from different tables or passages of the source. Where only a bound is given, the exact number is not on record here.

We go through five compounds from US8288410B2, “3-substituted quinolinium and 7H-indolo[2,3-c]quinolinium salts as new antiinfectives” (Florida Agricultural and Mechanical University, priority 2008, dated 2012).

In data set [1] the test system is Cryptococcus neoformans ATCC 90113. Nature of the data set: Antifungal susceptibility testing, Cryptococcus neoformans. It counts as cell-based. The method in brief:
(§1)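 Modified NCCLS broth microdilution, samples serially diluted from 20 μg/mL top concentration, inocula per 0.5 McFarland (C. albicans in SDB or RPMI 1640; C. neoformans in SDB; A. fumigatus in YM broth or RPMI-1640 + 5% Alamar Blue). IC50 from percent growth versus concentration; MIC read visually as lowest concentration without detectable growth.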

In the next data set the test system is MRSA. Nature of the data set: Antibacterial susceptibility testing, MRSA. It counts as cell-based, methicillin resistant Staphylococcus aureus. Conditions: Staphylococcus aureus. An outline of the steps:
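Each plate carried growth (saline only), solvent and blank (media only) controls, and Ciprofloxacin was the drug control. Plates were read before and after final incubation. MIC, the lowest concentration showing no detectable growth, was judged visually, and IC50 was obtained by plotting percent growth against concentration.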

The test system of data set [2] is Aspergillus fumigatus ATCC 90906. Nature of the data set: Antifungal susceptibility testing, Aspergillus fumigatus. It counts as cell-based. As to conditions: for IC50: ATCC90906, Aspergillus fumigatus, read-out: A fu IC50. The method in brief: as §1
Another data set deals with Vero Cells. As to the kind of experiment: Cytotoxicity, Vero cells. It counts as cell-based.
The test system of data set [3] is Candida albicans ATTC 90028. Nature of the data set: Antifungal susceptibility testing, Candida albicans. It counts as cell-based. An outline of the steps:
as §1

[4] abbreviates: ATCC90113, Table 1, read-out: Cn IC50.
Setting [5] is: ATCC90113, Table 1, read-out: Cn MFC.
Where [6] appears, read: ATCC90113, Table 1, read-out: Cn MIC.
Where [7] appears, read: ATTC90028, Table 1, read-out: Ca IC50.
Setting [8] is: ATTC90028, Table 1, read-out: Ca MFC.
Setting [9] is: ATTC90028, Table 1, read-out: Ca MIC.

For the compound `C[n+]1cccc(N(CCCCCC2CCCCC2)c2ccccc2)c1` [JRE-4-1-1], the melting point was 124 to 125 °C. In addition, in data set [1] (ATCC90113, Table 2, read-out: Cn IC50), the IC50 was determined as 1.5 µg/mL. For the same compound, the MFC in data set [1] (ATCC90113, Table 2, read-out: Cn MFC) is 5 µg/mL. Moreover, in data set [1] (ATCC90113, Table 2, read-out: Cn MIC), the MIC amounted to 2.5 µg/mL. For the same compound, the half-maximal inhibitory concentration (IC50) with MRSA (Table 2, read-out: MRSA IC50) was determined as 1.5 µg/mL. Also, the minimum inhibitory concentration (MIC) with MRSA (Table 2, read-out: MRSA MIC) was found to be 5 µg/mL. In addition, in data set [2], the “A fu MFC” value worked out at 1.3 µg/mL and the “A fu MIC” value came out at 1.3 µg/mL. Further, the IC50 in data set [2] (Table 2) was determined as 0.9 µg/mL. Moreover, the “TC50 Vero Cells” value with Vero Cells (Table 2) turned out to be 8.3 µg/mL. For the same compound, in data set [3] (ATTC90028, Table 2, read-out: Ca IC50), the IC50 stood at 3.5 µg/mL. The MFC in data set [3] (ATTC90028, Table 2, read-out: Ca MFC) was above 20 µg/mL. Besides, in data set [3] (ATTC90028, Table 2, read-out: Ca MIC), the MIC worked out at 10 µg/mL.
With `C[n+]1cc2c(c3cc(C(F)(F)F)ccc3n2CCCCCC2CCCCC2)c2ccccc21.[I-]` [JRE-4-17-1, 10-Trifluoromethyl-7-(5-cyclohexyl-pentyl)-5-methyl-7H-indolo[2,3-c]quinolin-5-ium iodide], the melting point fell in the range of 231 to 233 °C. Moreover, the IC50 in data set [1] (ATCC90113, Table 3, read-out: Cn IC50) amounted to 3 µg/mL. Also, the MFC in data set [1] (ATCC90113, Table 3, read-out: Cn MFC) worked out at 5 µg/mL. Moreover, the minimum inhibitory concentration (MIC) in data set [1] (ATCC90113, Table 3, read-out: Cn MIC) worked out at 5 µg/mL. For the same compound, in the data set with MRSA (Table 3, read-out: MRSA IC50), the concentration for half-maximal inhibition (IC50) was determined as 1.5 µg/mL. Moreover, the MFC with MRSA (Table 3, read-out: MRSA MFC) turned out to be 5 µg/mL. Besides, the minimal inhibitory concentration (MIC) with MRSA (Table 3, read-out: MRSA MIC) is 2.5 µg/mL. In data set [2], the “A fu MFC” value was determined as 10 µg/mL and the “A fu MIC” value stood at 10 µg/mL. The IC50 in data set [2] (Table 3) is 3.5 µg/mL. Besides, the “TC50 Vero Cells” value in the data set on Vero Cells (Table 3) was above 10 µg/mL. Moreover, the IC50 in data set [3] (ATTC90028, Table 3, read-out: Ca IC50) worked out at 3.5 µg/mL. Further, the MFC in data set [3] (ATTC90028, Table 3, read-out: Ca MFC) was 10 µg/mL. Besides, in data set [3] (ATTC90028, Table 3, read-out: Ca MIC), the MIC is 5 µg/mL.
In turn, `FC(F)(F)c1ccccc1Sc1cc2ccccc2[n+](CCCCC[n+]2cc(Sc3ccccc3C(F)(F)F)cc3ccccc32)c1` [XYZ-IV-45] returned a melting point of 175 to 176 °C. In addition, in data set [1] (setting [4]), the IC50 was 0.6 µg/mL. Besides, the MFC in data set [1] (setting [5]) was determined as 20 µg/mL. The MIC in data set [1] (setting [6]) turned out to be 2.5 µg/mL. Further, in the data set with MRSA (Table 1, read-out: MRS IC50), the IC50 was 0.95 µg/mL. The MFC with MRSA (Table 1, read-out: MRS MFC) is above 20 µg/mL. Besides, the MIC with MRSA (Table 1, read-out: MRS MIC) worked out at 5 µg/mL. Moreover, the “A fu MIC” value in data set [2] was determined as 20 µg/mL. In data set [2] (Table 1), the half-maximal inhibitory concentration (IC50) amounted to 9 µg/mL. Moreover, the “TC50 Vero Cells” value in the data set with Vero Cells (Table 1) is “NC (NC = Not toxic at 10 μg/mL)”. Moreover, the IC50 in data set [3] (setting [7]) is above 20 µg/mL. In addition, in data set [3] (setting [8]), the MFC is above 20 µg/mL. In data set [3] (setting [9]), the MIC was above 20 µg/mL.
Consider `FC(F)(F)c1ccccc1Sc1cc2ccccc2[n+](CCCCC[n+]2c3ccccc3cc3[nH]c4ccccc4c32)c1` [XYZ-IV-52], for which the melting point is 154 to 156 °C. Besides, in data set [1] (setting [4]), the IC50 was 4 µg/mL. Further, the MFC in data set [1] (setting [5]) was above 20 µg/mL. For the same compound, the minimum inhibitory concentration (MIC) in data set [1] (setting [6]) was 10 µg/mL. In addition, in the data set on MRSA (Table 1, read-out: MRS IC50), the IC50 amounted to 2 µg/mL. Moreover, the MFC in the data set on MRSA (Table 1, read-out: MRS MFC) is above 20 µg/mL. The minimal inhibitory concentration (MIC) in the data set with MRSA (Table 1, read-out: MRS MIC) was found to be 5 µg/mL. Besides, the “A fu MIC” value in data set [2] is 10 µg/mL. Moreover, the IC50 in data set [2] (Table 1) came to 5 µg/mL. Further, in the data set on Vero Cells (Table 1), the “TC50 Vero Cells” value is “NC (NC = Not toxic at 10 μg/mL)”. Moreover, in data set [3] (setting [7]), the IC50 was above 20 µg/mL. In addition, the MFC in data set [3] (setting [8]) is above 20 µg/mL. Besides, in data set [3] (setting [9]), the MIC is above 20 µg/mL.
With `FC(F)(F)c1cccc(Sc2cc3ccccc3[n+](CCCCC[n+]3cc(Sc4cccc(C(F)(F)F)c4)cc4ccccc43)c2)c1` [XYZ-IV-55], the melting point lay in the range of 167 to 168 °C. Further, the IC50 in data set [1] (setting [4]) stood at 0.95 µg/mL. Further, the MFC in data set [1] (setting [5]) was determined as 20 µg/mL. For the same compound, the MIC in data set [1] (setting [6]) is 2.5 µg/mL. The IC50 in the data set on MRSA (Table 1, read-out: MRS IC50) came out at 0.8 µg/mL. Besides, the MFC with MRSA (Table 1, read-out: MRS MFC) was found to be 10 µg/mL. Besides, the MIC with MRSA (Table 1, read-out: MRS MIC) is 2.5 µg/mL. For the same compound, the half-inhibitory concentration (IC50) in data set [2] (Table 1) amounted to 7.5 µg/mL. Moreover, in the data set with Vero Cells (Table 1), the “TC50 Vero Cells” value was “NC (NC = Not toxic at 10 μg/mL)”. In data set [3] (setting [7]), the IC50 came to 15 µg/mL. The MFC in data set [3] (setting [8]) is above 20 µg/mL. Moreover, the minimal inhibitory concentration (MIC) in data set [3] (setting [9]) was above 20 µg/mL.
